Measured values reported in US8858997B2, “Formulations and methods for lyophilization and lyophilates provided thereby” (Remedy Pharmaceuticals, Inc., priority 2007, dated 2014).
Values after ≈ are worked out from the molar mass of the structure shown. Like-named read-outs stand apart in the source and are kept apart here.

How the values were obtained:
[1] = cited from earlier work
[2] = Solubility of glibenclamide in buffered water solutions (Britton Robinson); assay type: physicochemical
Description: Buffered water solutions (Britton Robinson buffers) were used to determine the amounts of glibenclamide soluble in buffered solutions without added salt or added sugar.

[3] = all measured pH values from pH 4 to pH 9; Britton-Robinson buffer; cited from earlier work
[4] = 0.1 M, pH 10 phosphate-buffered aqueous solution (300 mOsm/L); cited from earlier work
[5] = Solubility studies using micronized glibenclamide: unbuffered 2% sucrose and water; assay type: physicochemical; conditions: for GLB mg/ml (glibenclamide in solution): 2% sucrose in water; for solubility: aqueous buffer, thermodynamic from solid, water without bulking agent
Protocol: Micronized glibenclamide in 2% sucrose (as a proxy for glucose, fructose, mannose, galactose, mannitol, sorbitol, lactose, trehalose, and other sugars, including mono-saccharides, di-saccharides) in water was prepared, as recorded in the left-hand column of Table 4. In addition, micronized glibenclamide was prepared in water without a bulking agent (see Table 4, right column). These were unbuffered solutions, so that 1) pH was adjusted to the target value, then 2) glibenclamide was added (which lowered the pH) and then 3) pH was re-adjusted up to the target. This was done iteratively until the pH was stable.

[6] = Solubility studies using micronized glibenclamide: unbuffered saline; assay type: physicochemical; conditions: thermodynamic from solid
Description: This was done iteratively until pH was stable. “GLB” indicates glibenclamide.

[7] = Stated physicochemical properties (pKa, water and ethanol solubility); conditions: 109 mg/L vs. 4 mg/L

CCOc1cc(CC(=O)N[C@@H](CC(C)C)c2ccccc2N2CCCCC2)ccc1C(=O)O [Repaglinide]
water solubility ([1]; pH 9): 600 µg/mL (≈ 1330 µM)

COc1ccc(Cl)cc1C(=O)NCCc1ccc(S(=O)(=O)NC(=O)NC2CCCCC2)cc1 [Glibenclamide, 5-chloro-N-[2-[4-(cyclohexylcarbamoylsulfamoyl)phenyl]ethyl]-2-methoxy-benzamide]
solubility ([2]; Britton Robinson buffer in water, aqueous buffer, pH 9.000, read-out: GLB mg/mL (glibenclamide in solution)): 0.14 mg/mL (≈ 283 µM) | solubility ([2]; Britton Robinson buffer in water, pH 9.7, aqueous buffer, pH 9.700, read-out: GLB mg/mL (glibenclamide in solution)): 0.85 mg/mL (≈ 1720 µM) | solubility ([2]; Britton Robinson buffer, aqueous buffer, pH 5.3, read-out: GLB mg/mL (glibenclamide in solution)): 0.01 mg/mL (≈ 20.2 µM) | solubility ([2]; Britton Robinson buffer, aqueous buffer, pH 8.000, read-out: GLB mg/mL (glibenclamide in solution)): 0.02 mg/mL (≈ 40.5 µM) | solubility ([2]; Britton Robinson buffer, aqueous buffer, pH 8.3, read-out: GLB mg/mL (glibenclamide in solution)): 0.02 mg/mL (≈ 40.5 µM) | solubility ([2]; Britton Robinson buffer, pH 6.2, aqueous buffer, pH 6.200, read-out: GLB mg/mL (glibenclamide in solution)): 0.01 mg/mL (≈ 20.2 µM) | solubility ([2]; Britton Robinson buffer, pH 7.1, aqueous buffer, pH 7.100, read-out: GLB mg/mL (glibenclamide in solution)): 0.01 mg/mL (≈ 20.2 µM) | solubility ([2]; Britton Robinson buffer, pH 10.1, aqueous buffer, pH 10.100, read-out: GLB mg/mL (glibenclamide in solution)): 2.35 mg/mL (≈ 4760 µM) | solubility [3]: below 1 mg/mL | solubility [4]: 500 µg/mL (≈ 1010 µM) | GLB mg/ml (glibenclamide in solution) ([5]; pH 7.45): 0.051 mg/mL | GLB mg/ml (glibenclamide in solution) ([5]; pH 7.50): 0.099 mg/mL | GLB mg/ml (glibenclamide in solution) ([5]; pH 8.24): 0.310 mg/mL | GLB mg/ml (glibenclamide in solution) ([5]; pH 8.66): 1.069 mg/mL | GLB mg/ml (glibenclamide in solution) ([5]; pH 9.16): 2.608 mg/mL | GLB mg/ml (glibenclamide in solution) ([5]; pH 9.53): 3.060 mg/mL | GLB mg/ml (glibenclamide in solution) ([5]; pH 9.74): 4.103 mg/mL | GLB mg/ml (glibenclamide in solution) ([5]; pH 11.23): 3.811 mg/mL | GLB mg/ml (glibenclamide in solution) ([5]; pH 11.30): 3.416 mg/mL | GLB mg/ml (glibenclamide in solution) ([5]; pH 11.99): 1.904 mg/mL | solubility ([5]; pH 7.36, read-out: GLB mg/ml (glibenclamide in solution)): 0.019 mg/mL (≈ 38.5 µM) | solubility ([5]; pH 7.55, read-out: GLB mg/ml (glibenclamide in solution)): 0.096 mg/mL (≈ 194 µM) | solubility ([5]; pH 8.65, read-out: GLB mg/ml (glibenclamide in solution)): 0.799 mg/mL (≈ 1620 µM) | solubility ([5]; pH 8.73, read-out: GLB mg/ml (glibenclamide in solution)): 0.087 mg/mL (≈ 176 µM) | solubility ([5]; pH 9.13, read-out: GLB mg/ml (glibenclamide in solution)): 0.205 mg/mL (≈ 415 µM) | solubility ([5]; pH 9.57, read-out: GLB mg/ml (glibenclamide in solution)): 3.97 mg/mL (≈ 8030 µM) | solubility ([5]; pH 10.28, read-out: GLB mg/ml (glibenclamide in solution)): 4.87 mg/mL (≈ 9860 µM) | solubility ([5]; pH 11.19, read-out: GLB mg/ml (glibenclamide in solution)): 4.67 mg/mL (≈ 9460 µM) | solubility ([5]; pH 11.44, read-out: GLB mg/ml (glibenclamide in solution)): 4.84 mg/mL (≈ 9800 µM) | solubility ([5]; pH 12.27, read-out: GLB mg/ml (glibenclamide in solution)): 2.51 mg/mL (≈ 5090 µM) | solubility ([6]; 0.9% saline in water, pH 8.07, saline or isotonic, Saline 0.9%, pH 8.070, read-out: GLB mg/ml (glibenclamide in solution)): 0.024 mg/mL (≈ 48.6 µM) | solubility ([6]; 0.9% saline in water, pH 8.44, saline or isotonic, Saline 0.9%, pH 8.440, read-out: GLB mg/ml (glibenclamide in solution)): 0.109 mg/mL (≈ 221 µM) | solubility ([6]; 0.9% saline in water, pH 9.18, saline or isotonic, Saline 0.9%, pH 9.180, read-out: GLB mg/ml (glibenclamide in solution)): 0.435 mg/mL (≈ 881 µM) | solubility ([6]; 0.9% saline in water, pH 9.92, saline or isotonic, Saline 0.9%, pH 9.920, read-out: GLB mg/ml (glibenclamide in solution)): 0.42 mg/mL (≈ 850 µM) | solubility ([6]; 0.9% saline in water, pH 10.48, saline or isotonic, Saline 0.9%, pH 10.480, read-out: GLB mg/ml (glibenclamide in solution)): 0.456 mg/mL (≈ 923 µM) | solubility ([6]; 0.9% saline in water, pH 11.06, saline or isotonic, Saline 0.9%, pH 11.060, read-out: GLB mg/ml (glibenclamide in solution)): 0.445 mg/mL (≈ 901 µM) | solubility ([6]; 0.9% saline in water, pH 11.61, saline or isotonic, Saline 0.9%, pH 11.610, read-out: GLB mg/ml (glibenclamide in solution)): 0.538 mg/mL (≈ 1090 µM) | solubility ([6]; 0.9% saline in water, pH 12.07, saline or isotonic, Saline 0.9%, pH 12.070, read-out: GLB mg/ml (glibenclamide in solution)): 0.476 mg/mL (≈ 964 µM) | solubility ([6]; 2% saline in water, pH 12.1, saline or isotonic, Saline 2%, pH 12.10, read-out: GLB mg/ml (glibenclamide in solution)): 0.216 mg/mL (≈ 437 µM) | solubility ([6]; 2% saline in water, saline or isotonic, Saline 2%, pH 7.24, read-out: GLB mg/ml (glibenclamide in solution)): 0.012 mg/mL (≈ 24.3 µM) | solubility ([6]; 2% saline in water, saline or isotonic, Saline 2%, pH 7.97, read-out: GLB mg/ml (glibenclamide in solution)): 0.028 mg/mL (≈ 56.7 µM) | solubility ([6]; 2% saline in water, saline or isotonic, Saline 2%, pH 8.34, read-out: GLB mg/ml (glibenclamide in solution)): 0.087 mg/mL (≈ 176 µM) | solubility ([6]; 2% saline in water, saline or isotonic, Saline 2%, pH 8.89, read-out: GLB mg/ml (glibenclamide in solution)): 0.214 mg/mL (≈ 433 µM) | solubility ([6]; 2% saline in water, saline or isotonic, Saline 2%, pH 8.94, read-out: GLB mg/ml (glibenclamide in solution)): 0.233 mg/mL (≈ 472 µM) | solubility ([6]; 2% saline in water, saline or isotonic, Saline 2%, pH 9.49, read-out: GLB mg/ml (glibenclamide in solution)): 0.205 mg/mL (≈ 415 µM) | solubility ([6]; 2% saline in water, saline or isotonic, Saline 2%, pH 10.31, read-out: GLB mg/ml (glibenclamide in solution)): 0.215 mg/mL (≈ 435 µM) | solubility ([6]; 2% saline in water, saline or isotonic, Saline 2%, pH 10.98, read-out: GLB mg/ml (glibenclamide in solution)): 0.192 mg/mL (≈ 389 µM) | solubility ([6]; 2% saline in water, saline or isotonic, Saline 2%, pH 11.49, read-out: GLB mg/ml (glibenclamide in solution)): 0.194 mg/mL (≈ 393 µM) | ethanol solubility [1]: 5000 µg/mL

CCCCNC(=O)NS(=O)(=O)c1ccc(C)cc1 [Tolbutamide]
times more soluble in water than glibenclamide [7]: 24 times | water solubility [1]: 109 µg/mL (≈ 403 µM)
